Data set [1] can be described thus: Peptide solubility in PBS/H2O.
The target of data set [2] is T1, EphA2 (Homo sapiens, UniProt P29317). Put plainly: ELISA: inhibition of ephrin-A5 AP binding to immobilized EphA2 Fc. The note with it: average ± SE. On the set-up: the immobilized EphA2 extracellular domain fused to the Fc portion of an antibody (EphA2 Fc). Here is the method:
(FIG. 2A) Representative ELISAs comparing the ability of the peptides to inhibit binding of ephrin-A5 fused to alkaline phosphatase (ephrin-A5 AP) to the immobilized EphA2 extracellular domain fused to the Fc portion of an antibody (EphA2 Fc). The graphs show averages±SE from triplicate measurements from a representative experiment. IC50 values calculated from the fitted curves in each experiment are shown. All concentrations are nM and the 100 nM peptide concentration is outlined in red. (FIG. 2B) Ephrin-A5 AP binding to the indicated EphA receptors and ephrin-B2 AP binding to the indicated EphB receptors in the presence of the indicated peptide, normalized to ephrin binding without peptide. The bars show averages±SE from triplicate measurements.
(In general: In an ELISA, binding on a coated surface is turned into a signal by an enzyme label.)
Target sequence in this assay (P29317 24-537 limits assumed, species assumed): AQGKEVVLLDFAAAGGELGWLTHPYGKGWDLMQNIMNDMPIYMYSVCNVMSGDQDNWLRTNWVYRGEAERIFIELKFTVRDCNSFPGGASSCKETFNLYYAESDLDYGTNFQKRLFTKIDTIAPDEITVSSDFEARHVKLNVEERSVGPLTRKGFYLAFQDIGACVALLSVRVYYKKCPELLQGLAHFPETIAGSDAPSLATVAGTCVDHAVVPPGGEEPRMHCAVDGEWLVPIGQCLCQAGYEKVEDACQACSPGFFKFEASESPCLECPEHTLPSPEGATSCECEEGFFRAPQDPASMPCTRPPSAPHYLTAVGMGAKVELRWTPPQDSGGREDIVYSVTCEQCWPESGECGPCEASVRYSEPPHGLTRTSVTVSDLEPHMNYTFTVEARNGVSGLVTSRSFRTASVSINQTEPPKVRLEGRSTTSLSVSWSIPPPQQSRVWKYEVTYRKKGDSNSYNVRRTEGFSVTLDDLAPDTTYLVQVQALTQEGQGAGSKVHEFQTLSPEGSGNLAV

Data set [3] deals with T1, EphA2. Put plainly: EphA2 Y588 autophosphorylation in PC3 cells (immunoblot). The data set is classed as cell-based. Also on record: endogenous EphA2 expressed in PC3 prostate cancer cells; endogenous in cells; host or cells: PC3 prostate cancer cells. The note with it: for EphA2 activation / Y588 phosphorylation (in words): 15 min. The protocol:
(§1) PC3 cells were treated for 15 min with different concentrations of the indicated peptides. […] The graphs show quantification of pY588 and pAKT from multiple blots (averages±SE), normalized to total EphA2 levels. The number of experiments analyzed is: 5 in FIG. 4A, 3 in FIG. 4B, 7 in FIG. 4C, 7 in FIG. 4D, 5 in FIG. 4E, 3 in FIG. 4F, 3 in FIG. 4G and 2 in FIG. 4H.
PC3 cells were treated for 15 min with different concentrations of the indicated peptides. […] The graphs show quantification of pY588 or pAKT from multiple blots (averages±SE), normalized to total EphA2 levels. The number of experiments analyzed is: 3 in FIG. 10A, 6 in FIG. 10B, 2 in FIG. 10C, 5 in FIG. 10D, 4 in FIG. 10E and 3 in FIG. 10F.
On the technique in general: In western blotting, separated proteins are transferred to a membrane and probed.
Target sequence in this assay (P29317 24-976): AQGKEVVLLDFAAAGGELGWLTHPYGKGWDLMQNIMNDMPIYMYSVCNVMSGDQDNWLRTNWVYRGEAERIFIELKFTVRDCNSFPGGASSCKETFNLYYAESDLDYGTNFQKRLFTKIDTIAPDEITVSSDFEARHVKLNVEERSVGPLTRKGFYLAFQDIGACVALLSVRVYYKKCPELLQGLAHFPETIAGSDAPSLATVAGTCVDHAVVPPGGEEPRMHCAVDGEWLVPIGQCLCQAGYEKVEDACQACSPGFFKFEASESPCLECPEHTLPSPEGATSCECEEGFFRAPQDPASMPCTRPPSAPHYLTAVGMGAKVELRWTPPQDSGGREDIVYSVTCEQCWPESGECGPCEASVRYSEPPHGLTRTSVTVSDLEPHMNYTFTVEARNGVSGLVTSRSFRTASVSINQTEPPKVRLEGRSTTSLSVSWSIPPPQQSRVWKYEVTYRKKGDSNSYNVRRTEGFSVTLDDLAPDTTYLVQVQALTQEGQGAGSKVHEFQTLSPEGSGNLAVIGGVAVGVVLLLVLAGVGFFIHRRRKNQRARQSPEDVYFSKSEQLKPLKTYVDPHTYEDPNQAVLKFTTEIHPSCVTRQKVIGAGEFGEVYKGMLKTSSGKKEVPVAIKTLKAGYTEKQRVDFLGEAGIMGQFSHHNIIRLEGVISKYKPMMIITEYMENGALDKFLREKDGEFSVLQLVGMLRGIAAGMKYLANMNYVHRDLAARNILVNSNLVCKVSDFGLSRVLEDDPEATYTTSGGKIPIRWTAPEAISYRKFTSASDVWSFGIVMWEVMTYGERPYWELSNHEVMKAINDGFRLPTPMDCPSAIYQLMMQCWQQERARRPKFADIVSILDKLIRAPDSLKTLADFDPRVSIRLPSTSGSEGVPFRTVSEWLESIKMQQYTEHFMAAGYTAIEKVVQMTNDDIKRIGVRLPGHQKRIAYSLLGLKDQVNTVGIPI

Data set [4] concerns the target T1, EphA2. As to the kind of experiment: Inhibition of ephrin-A1 Fc-induced EphA2 Y588 phosphorylation in PC3 cells. Also on record: endogenous EphA2 expressed in PC3 prostate cancer cells; endogenous in cells; host or cells: PC3 prostate cancer cells. To be noted: 20 min peptide then 0.1 μg/ml ephrin-A1 Fc. It counts as cell-based. The protocol:
PC3 cells were treated for 20 min with different concentrations of the indicated peptides and then activated with 0.1 μg/ml ephrin-Al Fc. The immunoblots show EphA2 autophosphorylation on tyrosine 588 (pY588, indicative of receptor activation), total EphA2 levels, and AKT phosphorylation on S473 (indicative of AKT activation). pY588 values were normalized to the value obtained in the same blot with ephrin-Al Fc treatment in the absence of peptide. pAKT values were normalized to the value obtained in the same blot without ephrin-A1 Fc or peptide treatment. Calculated EC50 and IC50 values are shown. The graphs show quantification of pY588 and pAKT from 7 blots for each peptide (averages±SE), normalized to total EphA2 levels.
Target sequence in this assay (P29317 24-976): as above

Data set [5] has as its system AKT. Put plainly: AKT S473 phosphorylation in PC3 cells (immunoblot). It counts as cell-based. To be noted: peptide then 0.1 μg/ml ephrin-A1 Fc. Here is the method:
as §1

Data set [6] concerns the target T2, EphA2 LBD (Homo sapiens, UniProt P29317).
T2 construct: EphA2 LBD (residues 28-200); made in house; host or cells: E. coli Origami 2 (DE3)
Put plainly: Isothermal titration calorimetry (ITC) of peptide binding. The protocol: For ITC, all peptides were dissolved in DMSO and both the EphA2 LBD and the peptides were diluted to obtain a final buffer containing 9.5 mM HEPES, pH 7.9, 95 mM NaCl, and 5% DMSO. […] Two-microliter aliquots of a peptide solution were injected into the cell containing 205 μL EphA2 LBD. 200-400 μM peptides were titrated into 20-40 μM EphA2 LBD. Experimental data were analyzed using the Origin software package (Microcal). The integrated values for the reaction heats were normalized to the amount of injected peptide after blank subtraction.
Background: ITC needs no label: the signal is the heat of the interaction.

Data set [7] concerns the target T3, EphA2 WT (Homo sapiens, UniProt P29317).
T3 construct: expressed in transfected cells; host or cells: HEK293 (transient transfection)
As to the kind of experiment: Quantitative FRET of EphA2 oligomerization in HEK293 cells. The data set is classed as cell-based. To be noted: transiently transfected HEK293 cells; 50 μM for YSA-GSGSK-bio.

Data set [8] has as its target T4, EphA2 L223R/L254R/V255R (Homo sapiens, UniProt P29317, L223R/L254R/V255R).
T4 construct: expressed in transfected cells; host or cells: HEK293 (transient transfection)
The description is as above. It counts as cell-based. To be noted: 50 μM peptide. The source says: (§2) (FIG. 5F) Two-dimensional dissociation constant values (Kdiss) and dimerization free energy values (ΔG=−RT×In (10^6/Kdiss) calculated from the curves shown in the other panels. Shown are the best fit values and the […] confidence intervals (standard errors). Kdiss values for all curves were compared to each other using one-way ANOVA followed by Tukey's multiple comparison test; *, P<0.05; **, P<0.01; ***, P<0.001; * P<0.0001; ns, not significant.
(§3) Thus, the peptide enhanced the weak EphA2 dimerization observed in the absence of a bound ligand, which also occurred through the clustering interface. In contrast, the monomeric soluble form of ephrin-Al induced the formation of EphA2 dimers that assembled through another extracellular interface known as the “heterodimerization” or “dimerization” interface.

In data set [9] the target is T5, EphA2 G131Y (Homo sapiens, UniProt P29317, G131Y).
T5 construct: expressed in transfected cells; host or cells: HEK293 (transient transfection)
The description is as above. The note with it: 50 μM peptide. It counts as cell-based.
Description: as §2, §3

The nature of data set [10]: physchem.
Setting [11] is: PBS, Solubility in PBS (mg/ml), PBS (first figure of cell).
The mark [12] stands for this setting: water, Solubility in H2O (mg/ml), H2O (second figure of cell).
Where [13] appears, read: EphA2 LBD, 23° C., average ± SE (Table 1), read-out: KD (nM) by ITC.

≈ marks a conversion by molar mass, not a printed value. Where two headings read alike, the source gives them in different places.

By solubility is commonly meant the concentration that dissolves in the medium under given conditions. For orientation: IC50 means the midpoint of a concentration-inhibition curve.

T2 sequence (P29317 28-200): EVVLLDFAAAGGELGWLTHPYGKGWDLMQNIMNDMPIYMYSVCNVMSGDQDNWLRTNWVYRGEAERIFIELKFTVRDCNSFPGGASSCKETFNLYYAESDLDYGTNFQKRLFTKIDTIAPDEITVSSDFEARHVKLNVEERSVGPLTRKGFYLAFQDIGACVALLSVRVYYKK
T4 sequence (P29317 24-976 L223R/L254R/V255R): as the sequence (P29317 24-976) above, with L200R, L231R, V232R counted along it
T3 sequence (P29317 24-976): as the sequence (P29317 24-976) above
T5 sequence (P29317 24-976 G131Y): as the sequence (P29317 24-976) above, with G108Y counted along it

For the compound `CC(=O)NCCCC[C@H](NC(=O)[C@@H]1CCCN1C(=O)[C@H](CCCNC(=N)N)NC(=O)[C@H](Cc1ccc(O)cc1)NC(=O)[C@@H]1CCCN1C(=O)[C@@H](NC(=O)[C@H](CO)NC(=O)[C@H](CC(=O)O)NC(=O)[C@@H]1CCCN1C(=O)[C@H](Cc1ccc(O)cc1)NC(=O)[C@H](C)NC(=O)[C@H](CC(C)C)NC(=O)[C@H](Cc1c[nH]c2ccccc12)NC(=O)CCN)C(C)C)C(=O)O` [βA-WLA-YRP-ack], the solubility in data set [1] (setting [11]) and in [1] (setting [12]) was 5000 µg/mL (≈ 2.93 mM) in each case. This compound came in with an IC50 in [2] of 82 ± 10 nM. The “EphA2 activation / Y588 phosphorylation (in words)” value in data set [3] is “only slightly increased agonistic ability”.
In the case of `CC(C)C[C@H](NC(=O)[C@H](Cc1c[nH]c2ccccc12)NC(=O)CCN)C(=O)N[C@@H](C)C(=O)N[C@@H](Cc1ccc(O)cc1)C(=O)N1CCC[C@H]1C(=O)N[C@@H](CC(=O)O)C(=O)N[C@@H](CO)C(=O)N[C@H](C(=O)N1CCC[C@H]1C(=O)N[C@@H](Cc1ccc(O)cc1)C(=O)N[C@@H](CCCNC(=N)N)C(=O)N1CCC[C@H]1C(=O)N[C@@H](CCCCN)C(N)=O)C(C)C` [βA-WLA-YRPKam], the solubility in [1] (setting [11]) and in [1] (setting [12]) was 10000 µg/mL (≈ 6.02 mM) each time. In data set [4], the “effect on EphA2 Y588 phosphorylation induced by ephrin-A1 Fc” value is “inhibited”. This compound displayed an IC50 in data set [2] of 19 ± 2 nM. Further, the “effect on AKT inhibition caused by EphA2 activation” value in data set [5] is on record as “prevented the inhibitory effects”. Moreover, the Kd in data set [6] (setting [13]) is 110 nM.
In the case of `CSCC[C@H](NC(=O)[C@H](CCSC)NC(=O)[C@@H]1CCCN1C(=O)[C@@H](NC(=O)[C@H](CO)NC(=O)[C@H](CC(=O)O)NC(=O)[C@@H]1CCCN1C(=O)[C@H](Cc1ccc(O)cc1)NC(=O)[C@H](C)NC(=O)[C@H](CO)NC(=O)[C@@H](N)Cc1ccc(O)cc1)C(C)C)C(=O)N[C@@H](CO)C(=O)NCC(=O)N[C@@H](CO)C(=O)NCC(=O)N[C@@H](CO)C(=O)N[C@@H](CCCCNC(=O)CCCC[C@@H]1SC[C@@H]2NC(=O)N[C@@H]21)C(=O)O` [YSA-GSGSK-bio], the solubility in data set [1] (setting [11]) and in data set [1] (setting [12]) was 15000 µg/mL (≈ 7.54 mM) throughout. Also, in [7], the “EphA2 WT oligomerization by FRET” value was “substantially increased the oligomeric fraction”. The “EphA2 L223R/L254R/V255R oligomerization by FRET” value in data set [8] is “promoted substantial oligomerization”. Also, in data set [9], the “EphA2 G131Y oligomerization by FRET” value is on record as “had no effect on/reduced oligomerization”.
In the case of `CC(C)C[C@H](NC(=O)[C@H](Cc1c[nH]c2ccccc12)NC(=O)CCN)C(=O)N[C@@H](C)C(=O)N[C@@H](Cc1ccc(O)cc1)C(=O)N1CCC[C@H]1C(=O)N[C@@H](CC(=O)O)C(=O)N[C@@H](CO)C(=O)N[C@H](C(=O)N1CCC[C@H]1C(=O)N[C@@H](Cc1ccc(O)cc1)C(=O)N[C@@H](CCCNC(=N)N)C(=O)N1CCC[C@H]1C(=O)N[C@@H](CCCCNC(=O)CCCC[C@@H]1SC[C@@H]2NC(=O)N[C@@H]21)C(N)=O)C(C)C` [βA-WLA-YRPKam-bio], the solubility worked out at 2000 µg/mL (≈ 1.06 mM) in data set [1] (setting [11]) and 5000 µg/mL (≈ 2.65 mM) in [1] (setting [12]). In data set [2], this compound returned an IC50 of 18 ± 1 nM. The “EphA2 activation / Y588 phosphorylation (in words)” value in [3] is on record as “induce high levels of EphA2 phosphorylation”.
On to `CC(C)C[C@H](NC(=O)[C@H](Cc1c[nH]c2ccccc12)NC(=O)CCN)C(=O)N[C@@H](C)C(=O)N[C@@H](Cc1ccc(O)cc1)C(=O)N1CCC[C@H]1C(=O)N[C@@H](CC(=O)O)C(=O)N[C@@H](CO)C(=O)N[C@H](C(=O)N1CCC[C@H]1C(=O)N[C@@H](Cc1ccc(O)cc1)C(=O)N[C@@H](CCCNC(=N)N)C(=O)N1CCC[C@H]1C(=O)N[C@@H](CCCCN)C(=O)O)C(C)C` [βA-WLA-YRPK], for which the solubility in data set [1] (setting [11]) and in data set [1] (setting [12]) was 10000 µg/mL (≈ 6.01 mM) each time. In data set [2], this compound registered an IC50 of 55 ± 5 nM. The “EphA2 activation / Y588 phosphorylation (in words)” value in data set [3] is “substantial ability to activate EphA2”. Also, in [3] (saturating peptide concentrations), the “maximal Y588 phosphorylation lower than biotinylated peptide” value was “about 40%”. Further, the values for the Kd in data set [6] (setting [13]) and in data set [6] (read-out: binding affinity for the EphA2 LBD measured by ITC) were 190 nM and approximately 200 nM, respectively.
In the case of `CC(C)C[C@H](NC(=O)[C@H](Cc1c[nH]c2ccccc12)NC(=O)[C@@H](N)CO)C(=O)N[C@@H](C)C(=O)N[C@@H](Cc1ccc(O)cc1)C(=O)N1CCC[C@H]1C(=O)NCC(=O)N[C@@H](C)C(=O)N[C@H](C(=O)N[C@@H](CO)C(=O)N[C@@H](Cc1ccc(O)cc1)C(=O)N[C@@H](CCCN=C(N)N)C(=O)O)C(C)C` [SWL], the solubility in data set [10] (Solubility in H2O (mg/ml)) is 10000 µg/mL (≈ 7.3 mM); in data set [10] (Solubility in PBS (mg/ml)), 5000 µg/mL (≈ 3.65 mM).

(Values after US12398179B2, “Nanomolar peptides and derivatives to differentially modulate ephrin receptors” (Sanford Burnham Prebys Medical Discovery Institute, priority 2019, dated 2025).)
